Measurements published in US5446207A, “Anti-dyslipidemic agents” (Harbor Branch Oceanographic Institution, Inc., priority 1993, dated 1995).

Molecular target: T1, recombinant CETP (rCETP) (Homo sapiens, UniProt P11597)
T1 sequence (P11597 18-493): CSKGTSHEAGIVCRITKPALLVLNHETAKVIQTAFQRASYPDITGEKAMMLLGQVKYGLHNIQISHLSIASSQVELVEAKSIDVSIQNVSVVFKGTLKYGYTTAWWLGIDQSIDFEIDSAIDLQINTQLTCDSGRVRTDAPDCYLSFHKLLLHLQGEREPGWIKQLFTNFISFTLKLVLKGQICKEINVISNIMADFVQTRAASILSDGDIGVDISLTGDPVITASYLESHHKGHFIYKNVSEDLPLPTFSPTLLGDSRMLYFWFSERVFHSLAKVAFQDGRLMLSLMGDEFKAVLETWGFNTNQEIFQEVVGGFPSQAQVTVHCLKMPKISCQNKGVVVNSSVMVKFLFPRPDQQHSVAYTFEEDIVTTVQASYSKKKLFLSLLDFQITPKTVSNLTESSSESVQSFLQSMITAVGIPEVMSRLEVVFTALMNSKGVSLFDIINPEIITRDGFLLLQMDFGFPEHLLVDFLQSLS
Experiment: CETP scintillation proximity assay (transfer of [3H]cholesteryl esters from HDL to biotinylated LDL)
Assay type: biochemical
Details: for IC50: rCETP, 37° C., 4 hours, SPA, read-out: IC50 (inhibition of CETP transfer activity); for activity in the cholesteryl ester transfer protein (CETP) assay: statement in words
Experimental: This assay used a commercially available CETP Scintillation Proximity Assay kit (Amersham TRKQ7015). In this assay, the transfer of [^3 H]cholesteryl esters from high density lipoprotein (HDL) to biotinylated low density lipoproteins (LDL) was measured following incubation of donor and acceptor particles in the presence of recombinant CETP (rCETP; see Wang S. et al J. Biol. Chem. (1992) 267:1746-17490 which is herein incorporated by reference). Following incubation, the reaction was terminated and transfer was measured in a single step addition of streptavidin SPA beads, formulated in an assay terminal buffer (Amersham). The rate of increase in signal was proportional to the transfer of [^3 H]cholesteryl ester by CETP.
To 96-well microtiter plates ([…] Microlite) was pipetted 5 μl of sample (or buffer for blank) of appropriate dilution. […] As a control, 5 μl of CETP monoclonal antibody TP-1, 1:10 dilution from ascites was added. The reaction was started by adding 45 μl of the following mixtures to each well.
20 μl of assay buffer (from kit)
10 μl ^3 H]Cholesteryl ester-HDL (from kit)
10 μl of biotinylated LDL (from kit)
The contents of the plate were mixed briefly by tapping the plate gently and then the plate was sealed with parafiim to prevent evaporation during the incubation. The plates were incubated at 37° C. for 4 hours. After incubation the reaction was stopped by adding 200 μl of streptavidin beads to each well. The beads were shaken gently before addition. The mixture was incubated at room temperature for 30 minutes to allow the assay to come to equilibrium with beads. Dpm were counted on a TopCount (Packard Instrument Company, Downers Grove, Ill.) (A conventional scintillation counter with window settings fully open may also be used).

IC50 | activity in the cholesteryl ester transfer protein (CETP) assay | SMILES
2900 nM | active | COc1ccc(O)c(O)c1/C=C1\[C@@H](C)CC[C@H]2C(C)(C)CCC[C@]12C (relative stereo) [Compound B, wiedendioI-B]
2000 nM | active | COc1ccc(O)c(O)c1CC1=C(C)CC[C@H]2C(C)(C)CCC[C@]12C (relative stereo) [Compound A, wiedendioI-A]
